Tests used:
[1] = test system: EdcR (TetR-like repressor, EGO55_13520); assay: EdcR-dependent Pb-msf-gfp reporter de-repression in E. coli DH10B (with RT-PCR in C. tardaugens ΔedcA); format: cell-based, Escherichia coli DH10B
[2] = test system: EdcR (TetR-like repressor, EGO55_13520); assay: EdcR-dependent Pb-msf-gfp reporter de-repression in E. coli DH10B; format: cell-based, Escherichia coli DH10B

Row | Structure (SMILES) | EC50 [1] | EC50 [2]
1 | C[C@]12CC[C@@H]3c4ccc(O)cc4CC[C@H]3[C@@H]1CCC2=O [E1, estrone] | 1380 nM | 
2 | C[C@]12CC[C@@H]3c4ccc(O)cc4CC[C@H]3[C@@H]1CC[C@@H]2O [E2, 17β-estradiol] |  | 3320 nM
